Read-outs that look alike come from different tables or passages of the source.
What was measured:
[1] = in vivo; cited from earlier work
[2] = test system: Necrotic Enteritis strain of C. perfringens; format: cell-based, Clostridium perfringens
[3] = test system: clinical isolate of C. difficile; test: In vitro MIC and MBC against Clostridium difficile (Example 6); format: cell-based
[4] = in vivo
[5] = test system: Eimeria species (mainly E. acervulina)
[6] = cited from earlier work
[7] = test system: Clostridium Perfringens (type A strain EHE-NE36) after Eimeria oocyst challenge; details: NE challenged broilers; for median lesion scores: relative to nil-treatment; for small intestinal lesion scores: relative to nil treatment
[8] = Feed palatability, feed and water consumption and bird productivity study (Example 2); format: in vivo, broiler chickens; details: treated birds, in-water days 6-42
From the text: A follow-up study to determine the feed palatability, feed and water consumption and bird productivity following incorporation of a single formulation of IRP001 hemisulfate salt (unmasked) when offered to broiler chickens in-feed or in-water. The study explores the optimal treatment regime in terms of treatment start date.
Phase 1: On receipt, two hundred and seventy (270) day-old commercial broiler chickens were allocated sequentially as they are received into sixteen (16) individual floor pens, each of 16 or 17 birds, on Day 0.
Phase 2: On receipt, the ninety (90) day-old commercial broiler chickens were allocated sequentially as they are received into four (4) individual floor pens, each of 22 or 23 birds, on Day 22.
Feed intake, water intake, weight gain and mortality were used as outcome parameters.
Individual daily feed intake and individual daily water intake data by pen and then by treatment group were calculated for Phases 1 and 2 (and for the entire trial for the birds in Group/Pen 2, 15 and 16 that continue through both Phases) using figures for total feed and water provided each day to each pen divided by the number of birds in each pen. Where errors in weighing, feeding/watering or recording (or other unexplained losses of feed and water) had occurred means were adjusted by using the mean value for the same pen on the 1-2 days either side of the apparent error. Similarly, group mean bodyweights were calculated for Phase 1 using total weight/total no. birds for Day 0 and individual weights from Days 7, 14, 21, 28, 35 and 42. Total (individual) feed consumed was calculated per treatment and feed conversion ratios per treatment calculated using the expression: total (individual) feed/total (individual) weight gain.
Individual daily feed intake and individual daily water intake were statistically compared by treatment within each phase and between Pens 2 and 15/16 over both phases using a linear model:—
and Tibco SPOTFIRE S+ 8.2 (2010). ‘Day’ was included in the model to allow for changes over time, ‘Pen’ as each treatment consisted of 2 pens while an interaction term ‘Treatment:Day’ was included to allow for treatment×time effects. Model suitability was confirmed by inspection of residual plots; in all instances the statistical model was appropriate.

E. coli causing scour = test: In vitro MIC against pig disease strains (Example 5); format: cell-based; details: all 5 strains of E. coli causing scour

With `COc1ccc2cc3[n+](cc2c1OC)CCc1cc2c(cc1-3)OCO2` [IRP001, berberine] as the compound, how does the carcinogenicity finding [1] read?
Its carcinogenicity finding is “potential carcinogenicity”.

What about the MIC ([2]; C. perfringens NE strain, Berberine sulfate (purity 98.0%) as test agent) of the same compound?
The MIC was 125 µg/mL.

What about the inhibition of growth ([2]; C. perfringens, at 62.5 µg/ml) of the same compound?
Its inhibition of growth is “partial inhibition of growth”.

And the MIC ([3]; Clostridioides difficile, C. difficile clinical isolate, Berberine sulfate as test agent, variation between replicates, read-out: MIC)?
The MIC was 500 to 1000 µg/mL.

What about the MBC ([3]; Clostridioides difficile, against CD (C. difficile)) of the same compound?
The MBC was 880 to 1000 µg/mL.

What about the MIC ([3]; Clostridioides difficile, against CD (C. difficile), read-out: MIC) of the same compound?
Its MIC is 640 to 820 µg/mL.

And the “adverse reactions / unanticipated events” value [4]?
The value was “no adverse reaction or unanticipated event”.

Which “Intestinal health score: Ballooning (total gut)” value ([5]; 21 days) does the source give for `CC[C@@H](C(=O)[C@@H](C)[C@@H](O)[C@H](C)[C@@H]1O[C@@H]([C@@H](CC)C(=O)O)CC[C@@H]1C)[C@H]1O[C@]2(C=C[C@@H](O)[C@]3(CC[C@@](C)([C@H]4CC[C@](O)(CC)[C@H](C)O4)O3)O2)[C@H](C)C[C@@H]1C` [salinomycin, Salinomycin, reference compound] here?
The value was 0.10.

And the “Intestinal health score: Contents lower intestine” value ([5]; 21 days)?
The value was 0.45.

And the “Intestinal health score: Contents upper intestine” value ([5]; 21 days)?
Its value is 0.65.

What about the “Intestinal health score: Hyperaemia lower intestine” value ([5]; 21 days) of the same compound?
The value was 0.00.

And the “Intestinal health score: Hyperaemia upper intestine” value ([5]; 21 days)?
The value was 0.15.

And the “Intestinal health score: Tonus lower intestine” value ([5]; 21 days)?
The value was 0.50.

And the “Intestinal health score: Tonus upper intestine” value ([5]; 21 days)?
Its value is 0.50.

What about the “Intestinal health score: Total Intestine (maximum 10)” value ([5]; 21 days) of the same compound?
The value was 3.55.

And the “Intestinal health score: Translucency lower intestine” value ([5]; 21 days)?
Its value is 0.85.

What about the “Intestinal health score: Translucency upper intestine” value ([5]; 21 days) of the same compound?
Its value is 0.20^B.

What about the “Intestinal health score: Undigested particles in (rectum)” value ([5]; 21 days) of the same compound?
The value was 0.15^B.

What about the “Intestinal health score: Ballooning (total gut)” value ([5]; 28 days) of the same compound?
Its value is 0.80.

And the “Intestinal health score: Contents lower intestine” value ([5]; 28 days)?
The value was 0.00.

What about the “Intestinal health score: Contents upper intestine” value ([5]; 28 days) of the same compound?
The value was 1.00.

And the “Intestinal health score: Hyperaemia lower intestine” value ([5]; 28 days)?
The value was 0.20.

And the “Intestinal health score: Hyperaemia upper intestine” value ([5]; 28 days)?
The value was 0.80.

What about the “Intestinal health score: Tonus lower intestine” value ([5]; 28 days) of the same compound?
Its value is 0.60.

What about the “Intestinal health score: Tonus upper intestine” value ([5]; 28 days) of the same compound?
Its value is 0.80.

What about the “Intestinal health score: Total Intestine (maximum 10)” value ([5]; 28 days) of the same compound?
Its value is 5.20.

And the “Intestinal health score: Translucency lower intestine” value ([5]; 28 days)?
Its value is 0.20.

And the “Intestinal health score: Translucency upper intestine” value ([5]; 28 days)?
Its value is 0.40.

What about the “Intestinal health score: Undigested particles in (rectum)” value ([5]; 28 days) of the same compound?
The value was 0.40.

What about the “FCR 0-14 corrected for mortality” value ([5]; in vivo) of the same compound?
Its value is 1.113.

What about the “FCR 0-21 corrected for mortality” value ([5]; in vivo) of the same compound?
Its value is 1.238.

What about the “FCR 0-28 corrected for mortality” value ([5]; in vivo) of the same compound?
The value was 1.470.

What about the “FCR 0-42 corrected for mortality” value ([5]; in vivo) of the same compound?
Its value is 1.546^BC.

What about the “Faecal oocyst count, Mean” value ([5]; in vivo) of the same compound?
The value was 72,046 Oocyst/g.

And the “Feed per bird over days 0-14” value ([5]; in vivo)?
Its value is 497^AB g/bird.

And the “Feed per bird over days 0-21” value ([5]; in vivo)?
Its value is 1193^B g/bird.

And the “Feed per bird over days 0-28” value ([5]; in vivo)?
Its value is 2074 g/bird.

What about the “Feed per bird over days 0-42” value ([5]; in vivo) of the same compound?
The value was 4298 g/bird.

What about the “Mean Coccidiosis Lesion Score (maximum 4) Caeca” value ([5]; in vivo) of the same compound?
The value was 0.00.

What about the “Mean Coccidiosis Lesion Score (maximum 4) Duodenum” value ([5]; in vivo) of the same compound?
Its value is 1.35^ABC.

And the “Mean Coccidiosis Lesion Score (maximum 4) Ileum” value ([5]; in vivo)?
Its value is 0.00.

And the “Mean Coccidiosis Lesion Score (maximum 4) Jejunum” value ([5]; in vivo)?
Its value is 0.40^B.

And the “Mean Coccidiosis Lesion Score Total” value ([5]; in vivo)?
The value was 1.75^B.

What about the “Mean Weight Gain over days 0-7” value ([5]; in vivo) of the same compound?
The value was 116 gm.

What about the “Mean Weight Gain over days 8-14” value ([5]; in vivo) of the same compound?
Its value is 330^BC gm.

What about the “Mean Weight Gain over days 15-21” value ([5]; in vivo) of the same compound?
Its value is 517^A gm.

What about the “Mean Weight Gain over days 22-28” value ([5]; in vivo) of the same compound?
The value was 645 gm.

What about the “Mean Weight Gain over days 29-42” value ([5]; in vivo) of the same compound?
Its value is 1384 gm.

And the “Mean live weight at 0 days” value ([5]; in vivo)?
Its value is 41 gm.

What about the “Mean live weight at 7 days” value ([5]; in vivo) of the same compound?
The value was 157 gm.

What about the “Mean live weight at 14 days” value ([5]; in vivo) of the same compound?
The value was 446^B gm.

What about the “Mean live weight at 21 days” value ([5]; in vivo) of the same compound?
Its value is 963^AB gm.

And the “Mean live weight at 28 days” value ([5]; in vivo)?
The value was 1608^A gm.

And the “Mean live weight at 42 days” value ([5]; in vivo)?
Its value is 2991^A gm.

What about the growth rate ([5]; in vivo) of the same compound?
Its growth rate is “statistically similar to the control group”.

With `CN[C@H](CC(C)C)C(=O)N[C@H]1C(=O)N[C@@H](CC(N)=O)C(=O)N[C@H]2C(=O)N[C@H]3C(=O)N[C@H](C(=O)N[C@H](C(=O)O)c4cc(O)cc(O)c4-c4cc3ccc4O)[C@H](O)c3ccc(c(Cl)c3)Oc3cc2cc(c3O[C@@H]2O[C@H](CO)[C@@H](O)[C@H](O)[C@H]2O[C@H]2C[C@](C)(N)[C@H](O)[C@H](C)O2)Oc2ccc(cc2Cl)[C@H]1O` [Vancomycin, reference compound] as the compound, how does the MIC [2] read?
The MIC was “within the expected range”.

What about the MIC [3] of the same compound?
The MIC was “within the expected range”.

Which solubility ([6]; ethanol) does the source give for berberine hemisulfate [IRP001 sulfate] here?
Its solubility is “slightly soluble”.

And the solubility ([6]; water)?
Its solubility is “about 30 parts water”.

What about the median lesion scores ([7]; 0.1 g/L in-water) of the same compound?
Its median lesion scores is “no reduction in median lesion scores”.

What about the “Mortalities prior to autopsy” value ([7]; 0.1 g/L in-water, vs nil-treatment) of the same compound?
Its value is “not significantly different”.

What about the median lesion scores ([7]; 0.2 g/kg in-feed) of the same compound?
The median lesion scores was “no reduction in median lesion scores”.

What about the “Mortalities prior to autopsy” value ([7]; 0.2 g/kg in-feed, vs nil-treatment) of the same compound?
The value was “not significantly different”.

What about the “small intestinal lesion scores” value ([7]; 1.0 g/L in-water) of the same compound?
Its value is “substantial reduction in small intestinal lesion scores”.

What about the “Mortalities prior to autopsy” value ([7]; 1.0 g/L in-water, relative to nil-treatment and low-dose groups) of the same compound?
Its value is “significant reduction in mortalities”.

What about the “small intestinal lesion scores” value ([7]; 2.0 g/kg in-feed) of the same compound?
Its value is “substantial reduction in small intestinal lesion scores”.

What about the “Mortalities prior to autopsy” value ([7]; 2.0 g/kg in-feed, relative to nil-treatment and low-dose groups) of the same compound?
The value was “significant reduction in mortalities”.

What about the “FCR (feed conversion ratio)” value [8] of the same compound?
The value was 1.6 kg feed: 1 kg gain.

And the weight gained [8]?
Its weight gained is 2.35 kg.

With `COc1cc2c(cc1OC)-c1cc3ccc(OC)c(OC)c3c[n+]1CC2` [palmatine] as the compound, how does the MIC (E. coli causing scour) read?
The MIC was 125 µg/mL.
